Laboratory results: PMC5024129, “Adipokinetic hormones and their G protein-coupled receptors emerged in Lophotrochozoa” (Scientific Reports, 2016)
Square brackets hold non-standard residues; d marks the D form. Ends that are not written are not given here. Peptide text beside a SMILES is read from it. pGlu = O=C1CC[C@@H](C(=O)O)N1

Columns and labels:
C. gigas AKHR1-C = assay: Bioluminescence assay in CHO/G-16 cells expressing C. gigas AKHR1 splice variant C; type: cell-based, Crassostrea gigas
Excerpt: (§1) We stably expressed all four cloned splice variants from C. gigas AKHR1 (Fig. 2) in Chinese Hamster Ovary (CHO) cells. These cells were also stably transfected with the promiscuous G protein, G-16, and transiently transfected with apoaequorin. An activation of the receptor by its ligand in these pretreated CHO cells would result in an IP3/Ca^2+ second messenger cascade, which could be measured as a bioluminescence signal.
(§2) CHO cells stably expressing the human G-protein 16 (CHO/G16) were maintained in DMEM/F-12 + GlutaMAX^TM (Life Technologies) medium with 200 μg/ml hygromycin B (Invitrogen), 5% fetal calf serum (FCS) (Life Technologies), 1% (v/v) glutaMAX (Life Technologies), 100 U/ml penicillin(Life Technologies), and 100 μg/ml streptomycin (Life Technologies). To express the AKH receptor, 5 × 10^4 CHO/G16 cells were transfected with 3 μg pIRES vector containing the AKH receptor insert using JetPEI® transfection reagent (Polyplus), while 3 μg empty pIRES vector was used as a control. All tested peptides were from Genemed Synthesis, Inc. and initially dissolved in demethylformamide (DMF) followed by dilution in PBS.

C. gigas AKHR2 = assay: Bioluminescence assay in CHO/G-16 cells expressing C. gigas AKHR2; type: cell-based, Crassostrea gigas
Protocol: as §2, with “This receptor, therefore, remains an orphan. CHO cells” for “CHO cells”, “in PBS. The purities of the peptides and peptide contents were determined by HPCL and mass spectrometry as supplied by Genemed Synthesis. The bioluminescence assay was performed as described earlier[9][30] using a Victor2 1420 Multilabel Counter (Perkin Elmer).” for “in PBS.”

C. gigas AKHR1-D = assay: Bioluminescence assay in CHO/G-16 cells expressing C. gigas AKHR1 splice variant D; type: cell-based, Crassostrea gigas
Excerpt: as §1, §2

C. gigas AKHR1-A = C. gigas AKHR1-A (Magallana gigas, UniProt B1VCT5); assay: Bioluminescence assay in CHO/G-16 cells stably expressing C. gigas AKHR1-A (apoaequorin, IP3/Ca2+ cascade); type: cell-based, Crassostrea gigas; conditions: 10^−6 M peptide, CHO/G-16/AKHR1-A cells, Fig. 5A, n = 3
C. gigas AKHR1-A, sequence (B1VCT5 entry or part of it): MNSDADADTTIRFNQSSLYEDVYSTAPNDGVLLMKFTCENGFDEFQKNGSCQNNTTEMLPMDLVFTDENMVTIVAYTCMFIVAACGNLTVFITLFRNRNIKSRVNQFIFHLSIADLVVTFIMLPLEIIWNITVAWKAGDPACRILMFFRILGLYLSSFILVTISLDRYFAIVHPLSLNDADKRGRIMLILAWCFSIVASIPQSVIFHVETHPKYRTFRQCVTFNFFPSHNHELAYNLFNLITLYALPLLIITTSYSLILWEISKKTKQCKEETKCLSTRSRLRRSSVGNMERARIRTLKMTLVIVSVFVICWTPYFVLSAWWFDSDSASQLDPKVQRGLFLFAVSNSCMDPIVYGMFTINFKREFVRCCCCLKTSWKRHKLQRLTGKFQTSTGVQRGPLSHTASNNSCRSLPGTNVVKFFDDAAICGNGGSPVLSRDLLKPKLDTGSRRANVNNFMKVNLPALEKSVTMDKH
Excerpt: as §1, §2

Aplysia californica = conditions: injection into the slug; cited from earlier work
Excerpt: Johnson et al.[34] have recently shown that an AKH is present in the sea slug Aplysia californica. […] These findings are difficult to reconcile with our above considerations, but our own considerations are, of course, only hypothetical.

Row | Compound | Activation of AKHR1 splice variant C (C. gigas AKHR1-C) | Activation of AKHR2 (C. gigas AKHR2) | Activation of AKHR1 splice variant D (C. gigas AKHR1-D) | Bioluminescence response (activation) of AKHR1-A (C. gigas AKHR1-A) | Effect on defecation (Aplysia californica) | Effect on feeding (Aplysia californica) | Influence on hemolymph glucose concentrations (Aplysia californica)
1 | CC(C)[C@H](NC(=O)[C@@H]1CCC(=O)N1)C(=O)N[C@@H](CO)C(=O)N[C@@H](Cc1ccccc1)C(=O)N[C@@H](CO)C(=O)N[C@H](C(=O)N[C@@H](CC(N)=O)C(=O)N[C@@H](Cc1c[nH]c2ccccc12)C(=O)NCC(=O)N[C@@H](CO)C(N)=O)[C@@H](C)O [C. gigas AKH] ([pGlu]VSFSTNWGS-NH2) | could not be activated | could not be activated | could not be activated | can be activated | – | – | –
2 | Dm-CCAP: D. melanogaster crustacean cardioactive peptide (PFCNAFTGC; ends and bridges not checked; cysteine pairing not given here; UniProt Q9VCW0 52-60, looked up) | – | – | – | not active | – | – | –
3 | pQIHFSPDWGTamide [Aplysia californica AKH, molluscan true AKH of the sea slug] | – | – | – | – | induce defecation | reduce feeding | no influence
